Reference: ChEMBL document CHEMBL1201862, “PubChem BioAssay data set” (2004)
Calls of active or inactive are those of the source.

Experiments:
[1] = target: T1, Oxysterols receptor LXR-beta (Homo sapiens, UniProt P55055); format: functional, cell-based;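 also: agonist activity at LXR measured by a cell-based luminescence readout across a dose range, run as a counterscreen for daf-12 agonists; HEK293 cells with Gal4-LXR fusion and GAL4-driven luciferase reporter; potency for activation of Gal4-LXR reporter so compounds are agonists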
T1 sequence (P55055 whole entry): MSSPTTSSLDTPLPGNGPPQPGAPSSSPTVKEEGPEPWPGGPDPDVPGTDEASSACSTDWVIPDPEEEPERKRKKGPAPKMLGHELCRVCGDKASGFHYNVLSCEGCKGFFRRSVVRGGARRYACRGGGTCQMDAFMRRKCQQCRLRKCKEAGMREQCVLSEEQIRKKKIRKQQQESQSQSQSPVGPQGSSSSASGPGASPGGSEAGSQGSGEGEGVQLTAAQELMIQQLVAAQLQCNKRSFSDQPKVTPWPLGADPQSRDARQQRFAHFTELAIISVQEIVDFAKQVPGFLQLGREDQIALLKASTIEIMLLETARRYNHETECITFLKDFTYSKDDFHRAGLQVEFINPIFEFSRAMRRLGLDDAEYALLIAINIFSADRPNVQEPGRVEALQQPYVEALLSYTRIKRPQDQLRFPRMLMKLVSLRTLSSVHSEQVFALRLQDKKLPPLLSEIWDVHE

SUMO-activating enzyme [2] = target: T2, SUMO-activating enzyme (Homo sapiens, UniProt Q9UBT2); test: SUMOylation inhibitor hit validation, confirmation, SUMOylation inhibitor project, biochemical, AlphaScreen (AID 2018); format: functional
[3] = target: Luciferin 4-monooxygenase (Photinus pyralis, UniProt P08659); test: firefly luciferase enzyme inhibitors, dose response, biochemical, luminescence (AID 1891)
[4] = target: Heat shock protein HSP 90-alpha (Homo sapiens, UniProt P07900); format: functional, organism-based
[5] = target: 1-phosphatidylinositol 4,5-bisphosphate phosphodiesterase gamma-1 (Homo sapiens, UniProt P19174); test: Counterscreen for inhibitors of phospholipase C isozymes (PLC-B3): Fluorescence-based biochemical high throughput dose response assay to identify inhibitors of phospholipase C isozymes (PLC-gamma1).
SUMO-activating enzyme [6] = target: T2, SUMO-activating enzyme; test: inhibitors of in vitro SUMOylation cascade, primary screen, biochemical, HTRF, uHTS (AID 2006); format: protein-complex assay
[7] = Luminescence Cell-Based Dose Confirmation HTS to Identify Inhibitors of Platelet Dense Granule Release. [Related pubchem assays: 1663 (Primary HTS), 1678 (Summary of Project)]; format: functional
[8] = target: 1-phosphatidylinositol 4,5-bisphosphate phosphodiesterase beta-3 (Homo sapiens, UniProt Q01970); test: Fluorescence-based biochemical high throughput dose response assay to identify inhibitors of phospholipase C isozymes (PLC-B3).
1-phosphatidylinositol 4,5-bisphosphate phosphodiesterase beta-3, sequence (Q01970 whole entry): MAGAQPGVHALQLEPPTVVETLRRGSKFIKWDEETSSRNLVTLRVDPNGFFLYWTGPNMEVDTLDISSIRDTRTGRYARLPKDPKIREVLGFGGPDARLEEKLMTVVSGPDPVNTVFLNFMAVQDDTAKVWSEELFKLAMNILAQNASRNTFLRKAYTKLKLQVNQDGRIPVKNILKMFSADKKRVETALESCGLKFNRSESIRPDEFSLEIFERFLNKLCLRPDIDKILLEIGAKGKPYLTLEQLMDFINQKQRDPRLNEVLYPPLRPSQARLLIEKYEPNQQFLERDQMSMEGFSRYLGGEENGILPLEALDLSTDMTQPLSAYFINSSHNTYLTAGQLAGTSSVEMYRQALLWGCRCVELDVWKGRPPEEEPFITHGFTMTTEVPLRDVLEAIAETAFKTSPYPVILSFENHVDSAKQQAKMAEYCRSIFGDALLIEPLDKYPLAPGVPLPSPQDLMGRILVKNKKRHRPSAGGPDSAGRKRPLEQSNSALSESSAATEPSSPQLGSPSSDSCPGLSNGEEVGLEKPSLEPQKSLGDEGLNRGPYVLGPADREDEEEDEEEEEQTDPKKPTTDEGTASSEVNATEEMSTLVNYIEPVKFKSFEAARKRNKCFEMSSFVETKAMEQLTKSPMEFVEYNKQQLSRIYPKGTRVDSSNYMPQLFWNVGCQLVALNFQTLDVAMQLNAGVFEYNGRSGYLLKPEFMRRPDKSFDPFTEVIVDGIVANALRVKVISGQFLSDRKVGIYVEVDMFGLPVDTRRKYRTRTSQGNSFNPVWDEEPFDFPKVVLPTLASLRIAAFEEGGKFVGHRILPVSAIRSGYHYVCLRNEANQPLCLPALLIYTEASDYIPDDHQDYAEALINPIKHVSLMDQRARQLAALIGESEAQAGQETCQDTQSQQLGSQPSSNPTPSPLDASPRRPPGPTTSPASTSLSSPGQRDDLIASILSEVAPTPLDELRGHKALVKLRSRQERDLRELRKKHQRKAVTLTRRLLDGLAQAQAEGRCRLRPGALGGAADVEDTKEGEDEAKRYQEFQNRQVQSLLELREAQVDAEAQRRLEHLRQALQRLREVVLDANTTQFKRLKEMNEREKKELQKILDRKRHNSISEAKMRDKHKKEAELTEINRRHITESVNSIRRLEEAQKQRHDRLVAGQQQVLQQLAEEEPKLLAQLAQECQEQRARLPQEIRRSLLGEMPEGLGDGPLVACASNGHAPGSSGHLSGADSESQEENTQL

T2 sequence (Q9UBE0 whole entry): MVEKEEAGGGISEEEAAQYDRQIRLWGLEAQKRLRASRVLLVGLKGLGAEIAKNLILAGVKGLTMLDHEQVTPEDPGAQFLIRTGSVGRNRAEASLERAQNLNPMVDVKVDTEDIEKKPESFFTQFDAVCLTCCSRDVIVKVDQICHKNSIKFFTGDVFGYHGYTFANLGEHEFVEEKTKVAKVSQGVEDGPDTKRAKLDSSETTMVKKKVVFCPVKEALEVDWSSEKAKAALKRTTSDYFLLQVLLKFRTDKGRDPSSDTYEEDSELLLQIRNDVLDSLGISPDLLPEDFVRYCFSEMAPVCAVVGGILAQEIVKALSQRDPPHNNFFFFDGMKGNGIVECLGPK
T2 sequence (Q9UBT2 whole entry): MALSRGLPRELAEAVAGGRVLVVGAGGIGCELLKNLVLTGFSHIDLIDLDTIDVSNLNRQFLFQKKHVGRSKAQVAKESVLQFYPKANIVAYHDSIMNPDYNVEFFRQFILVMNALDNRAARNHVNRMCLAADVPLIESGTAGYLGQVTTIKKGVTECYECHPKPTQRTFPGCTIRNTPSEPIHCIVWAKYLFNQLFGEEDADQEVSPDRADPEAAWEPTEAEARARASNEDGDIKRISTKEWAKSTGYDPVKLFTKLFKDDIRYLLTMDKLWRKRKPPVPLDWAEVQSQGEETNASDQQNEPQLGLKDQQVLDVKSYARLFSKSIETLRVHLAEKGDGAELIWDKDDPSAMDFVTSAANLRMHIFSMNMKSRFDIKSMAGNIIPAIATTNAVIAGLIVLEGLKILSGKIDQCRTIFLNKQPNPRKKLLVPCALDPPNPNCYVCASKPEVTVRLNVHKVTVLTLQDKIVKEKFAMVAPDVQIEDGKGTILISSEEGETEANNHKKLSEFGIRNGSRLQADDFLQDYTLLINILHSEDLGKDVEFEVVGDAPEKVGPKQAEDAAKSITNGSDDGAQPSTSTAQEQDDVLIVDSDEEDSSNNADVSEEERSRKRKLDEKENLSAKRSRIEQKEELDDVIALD
Luciferin 4-monooxygenase, sequence (P08659 whole entry): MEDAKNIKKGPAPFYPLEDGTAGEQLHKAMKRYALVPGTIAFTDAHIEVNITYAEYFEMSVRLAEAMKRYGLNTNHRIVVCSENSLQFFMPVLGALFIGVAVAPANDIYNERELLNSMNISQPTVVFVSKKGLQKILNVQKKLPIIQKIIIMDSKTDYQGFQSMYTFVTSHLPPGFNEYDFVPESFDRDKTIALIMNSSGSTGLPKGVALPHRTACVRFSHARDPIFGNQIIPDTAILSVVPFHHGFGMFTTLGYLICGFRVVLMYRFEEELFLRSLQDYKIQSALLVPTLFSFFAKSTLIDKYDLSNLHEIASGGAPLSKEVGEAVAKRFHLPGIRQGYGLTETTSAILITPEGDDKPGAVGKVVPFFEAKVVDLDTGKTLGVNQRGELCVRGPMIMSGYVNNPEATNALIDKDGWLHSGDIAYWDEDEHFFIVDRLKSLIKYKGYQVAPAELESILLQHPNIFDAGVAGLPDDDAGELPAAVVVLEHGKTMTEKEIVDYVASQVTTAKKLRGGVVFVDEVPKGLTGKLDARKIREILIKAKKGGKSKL
1-phosphatidylinositol 4,5-bisphosphate phosphodiesterase gamma-1, sequence (P19174 whole entry): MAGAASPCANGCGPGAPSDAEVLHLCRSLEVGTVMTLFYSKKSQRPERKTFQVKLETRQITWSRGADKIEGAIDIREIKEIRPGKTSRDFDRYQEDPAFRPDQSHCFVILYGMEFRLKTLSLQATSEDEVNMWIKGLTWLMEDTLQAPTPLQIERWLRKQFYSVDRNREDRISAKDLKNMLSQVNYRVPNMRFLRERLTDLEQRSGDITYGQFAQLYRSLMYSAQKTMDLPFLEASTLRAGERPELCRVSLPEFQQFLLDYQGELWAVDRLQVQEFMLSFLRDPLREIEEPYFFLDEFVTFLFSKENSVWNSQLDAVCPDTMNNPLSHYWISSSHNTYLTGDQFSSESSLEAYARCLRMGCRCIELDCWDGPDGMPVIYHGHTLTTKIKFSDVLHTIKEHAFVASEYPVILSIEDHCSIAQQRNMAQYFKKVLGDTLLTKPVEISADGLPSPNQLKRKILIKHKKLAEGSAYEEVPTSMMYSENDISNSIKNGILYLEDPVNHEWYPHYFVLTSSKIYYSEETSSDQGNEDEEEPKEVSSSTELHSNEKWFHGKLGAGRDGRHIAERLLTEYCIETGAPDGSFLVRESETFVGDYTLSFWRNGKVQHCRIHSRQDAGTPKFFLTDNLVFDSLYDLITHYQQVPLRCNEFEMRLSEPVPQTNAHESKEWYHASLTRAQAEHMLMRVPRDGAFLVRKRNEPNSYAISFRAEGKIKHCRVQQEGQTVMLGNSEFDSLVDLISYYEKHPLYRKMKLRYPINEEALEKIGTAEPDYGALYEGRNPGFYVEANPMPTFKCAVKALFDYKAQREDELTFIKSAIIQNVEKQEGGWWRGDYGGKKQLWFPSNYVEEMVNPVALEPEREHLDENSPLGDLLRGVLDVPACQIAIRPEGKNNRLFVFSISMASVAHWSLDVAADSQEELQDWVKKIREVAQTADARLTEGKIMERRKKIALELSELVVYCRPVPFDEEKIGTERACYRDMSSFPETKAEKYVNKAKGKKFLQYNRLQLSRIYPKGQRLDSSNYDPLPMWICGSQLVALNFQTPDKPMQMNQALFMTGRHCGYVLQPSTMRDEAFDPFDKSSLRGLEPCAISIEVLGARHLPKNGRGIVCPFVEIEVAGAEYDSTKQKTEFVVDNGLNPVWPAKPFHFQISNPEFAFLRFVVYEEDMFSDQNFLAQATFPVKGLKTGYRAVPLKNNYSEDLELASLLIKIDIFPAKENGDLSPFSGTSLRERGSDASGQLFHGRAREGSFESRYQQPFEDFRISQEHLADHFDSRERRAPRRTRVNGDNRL

| EC50 [1] | SMILES | IC50 (SUMO-activating enzyme [2]) | EC50 [3] | AC50 [4] | IC50 [5] | IC50 (SUMO-activating enzyme [6]) | EC50 [7] | IC50 [8] |
| --- | --- | --- | --- | --- | --- | --- | --- | --- |
| > 67.6 µM (inactive) | Cc1ccc2nc(C)/c(=N\O)c(C)nc2c1 |  |  |  |  |  |  |  |
|  | Nc1ncnc2c1ncn2[C@@H]1O[C@H](COP(=O)(O)O)[C@@H](O)[C@@H]1O | 7.95 µM (active) | 1.08 µM (active) | 1.92 µM (active) | 8.71 µM (active) | 16.6 µM (active) | 0.946 µM (active) | > 122 µM (inactive) |
